According to patent publication US20180009797A1, “AZA-ARYL 1H-PYRAZOL-1-YL BENZENE SULFONAMIDES” (ChemoCentryx, Inc., priority 2016, published 2018):

Target: T1, CCR(9) (Homo sapiens, UniProt P51686)
T1 construct: CCR(9)-expressing cells such as T cell line MOLT-4 cells; host or cells: MOLT-4 T cell line
T1 sequence (P51686 1-369): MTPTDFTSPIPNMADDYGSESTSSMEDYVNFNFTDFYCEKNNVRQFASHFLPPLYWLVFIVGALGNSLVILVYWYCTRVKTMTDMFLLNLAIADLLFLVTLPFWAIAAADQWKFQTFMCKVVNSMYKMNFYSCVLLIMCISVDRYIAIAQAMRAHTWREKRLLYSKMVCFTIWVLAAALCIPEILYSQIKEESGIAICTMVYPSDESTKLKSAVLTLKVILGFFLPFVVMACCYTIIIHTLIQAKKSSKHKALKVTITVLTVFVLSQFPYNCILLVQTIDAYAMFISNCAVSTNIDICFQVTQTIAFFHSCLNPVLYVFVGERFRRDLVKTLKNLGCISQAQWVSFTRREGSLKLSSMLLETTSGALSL
Test: serum chemotaxis (serum migration) assay, MOLT-4 cells in human serum, TECK
Type: cell-based
Settings: read-out: A2
Protocol: In vitro cell chemotaxis assays can be performed (but are not limited to this format) using the 96-well microchamber (called ChemoTX™). The ChemoTX™ system is well known to those skilled in the art as a type of chemotactic/cell migration instrument. In this assay, CCR(9)-expressing cells (such as MOLT-4) are first incubated with a compound of interest, such as a possible CCR(9) antagonist at increasing concentrations. Typically, fifty thousand cells per well are used, but the amount can range from 10^3-10^6 cells per well. The chemokine ligand (for example, CCR(9) ligand TECK, typically at 50 nM (but can range from 5-100 nM)), is placed at the lower chamber and the migration apparatus is assembled. Twenty microliters of test compound-treated cells are then placed onto the membrane. Migration is allowed to take place at 37° C. for a period of time, typically 2.5 hours for CCR(9). At the end of the incubation, the number of cells that migrated across the membrane into the lower chamber is then quantified. The efficacy of a compound as an inhibitor of chemokine-mediated cell migration can be calculated as an IC50 (the concentration needed to reduce cell migration by 50%) or IC90 (for 90% inhibition).
MOLT-4 cells were obtained from the American Type Culture Collection (Manassas, Va.) and cultured in RPMI tissue culture medium supplemented with 10% fetal calf serum (FCS) in a humidified 5% CO2 incubator at 37° C. Recombinant human chemokine proteins TECK was obtained from R&D Systems (Minneapolis, Minn.). ChemoTX® chemotaxis microchambers were purchased from Neuro Probe (Gaithersburg, Md.). CyQUANT® cell proliferation kits were purchased from Molecular Probes (Eugene, Oreg.). Calcium indicator dye Fluo-4 AM was purchased from Molecular Devices (Mountain View, Calif.).
A serum chemotaxis assay was used to determine the efficacy of potential receptor antagonists at blocking the migration mediated through chemokine receptors, such as CCR(9). This assay was performed using the ChemoTX® microchamber system with a 5-μm pore-sized polycarbonate membrane. MOLT-4 cells were collected by centrifugation at 400×g at room temperature, then suspended at 50 million/ml in human serum, containing 50 mM HEPES (final pH of 7.2). The compound being tested or an equivalent volume of its solvent (DMSO) was then added to the cell/serum mixture at a final DMSO concentration of 0.125% (v/v), and this mixture was then incubated together at 37° C. for one hour. Separately, recombinant human TECK was diluted with chemotaxis buffer (HBSS+0.1% BSA), generally spanning a range from 0.1 nM to 500 nM, after which 29 μl of diluted chemokine was placed in the lower wells of the ChemoTX® plate. The 5-μm (pore size) polycarbonate membrane was placed onto the plate, and 20 μL of the cell/compound mixture was transferred onto each well of the membrane. The plates were incubated at 37° C. for 90 minutes, after which the polycarbonate membranes were removed and 5 μl of the DNA-intercalating agent CyQUANT (Invitrogen, Carlsbad, Calif.) was added to the lower wells. The amount of fluorescence, corresponding to the number of migrated cells, was measured using a Spectrafluor Plus plate reader (TECAN, San Jose, Calif.).
The A2 values were calculated from the following equation, comparing the efficacy of the test compound with that of the DMSO-only control at equi-active chemokine levels:
Log(A2)=log [drug(M)]−log [(A′/A)−1]
where A reflects the potency of the agonist in the absence of antagonist and […] reflects the potency of the agonist in the presence of antagonist at a given concentration of drug ([drug(M)]).

Row | SMILES | EC50 [nM]
1 | CC(C)c1ccc(S(=O)(=O)Nc2cc(C(F)(F)F)nn2-c2cccc3ncccc23)cc1 | 501 to 2500
2 | COc1cnc(-n2nc(C)cc2NS(=O)(=O)c2ccc(C(C)(C)C)cc2)c2ccccc12 | 501 to 2500
3 | Cc1cc(NS(=O)(=O)c2ccc(C(C)(C)C)cc2)n(-c2ccc(Br)c3ncccc23)n1 | 501 to 2500
4 | Cc1cc(NS(=O)(=O)c2cc(F)c(C(C)(C)C)c(F)c2)n(-c2cccc3ncccc23)n1 | < 500
5 | Cc1cc(NS(=O)(=O)c2ccc(C(C)(C)C)c(F)c2)n(-c2ccc(Br)c3ncccc23)n1 | < 500
6 | CC(C)(C)c1ccc(S(=O)(=O)Nc2ccnn2-c2cccc3ncccc23)cc1 | > 2500
7 | Cc1cc(NS(=O)(=O)c2ccc(OC(C)C)cc2)n(-c2cccc3ncccc23)n1 | 501 to 2500
8 | Cc1cc(NS(=O)(=O)c2ccc(C(C)(C)C)cc2)n(-c2cccc3c[n+]([O-])ccc23)n1 | > 2500
9 | Cc1cc(NS(=O)(=O)c2ccc(OC(C)C)cc2)n(-c2cccc3cnccc23)n1 | 501 to 2500
10 | Cc1cc(NS(=O)(=O)c2ccc(C(C)(C)C)cc2)n(-c2cccc3c2ccc[n+]3[O-])n1 | 501 to 2500
11 | CC(C)(C)c1ccc(S(=O)(=O)Nc2cc(CF)nn2-c2cccc3ncccc23)cc1 | < 500
12 | Cc1cc(NS(=O)(=O)c2ccc(C(C)(C)C)cc2)n(-c2cnc(N)c3ccccc23)n1 | 501 to 2500
13 | CCOc1ccc(-n2nc(C)cc2NS(=O)(=O)c2ccc(C(C)(C)C)cc2)c2cccnc12 | 501 to 2500
14 | CC(C)c1ccc(S(=O)(=O)Nc2cc(C(F)(F)F)nn2-c2cccc3cnccc23)cc1 | 501 to 2500
15 | Cc1cc(NS(=O)(=O)c2ccc(C(C)(C)C)cc2F)n(-c2cccc3ncccc23)n1 | 501 to 2500
16 | Cc1cc(NS(=O)(=O)c2ccc(C(C)(C)C)cc2)n(-c2nccc3ncccc23)n1 | 501 to 2500
17 | CCC(C)(C)c1ccc(S(=O)(=O)Nc2cc(C)nn2-c2cccc3ncccc23)cc1 | 501 to 2500
18 | Cc1cc(NS(=O)(=O)c2ccc(C(C)(C)C)cc2)n(-c2cccc3ncccc23)n1 | < 500
19 | Cc1cc(NS(=O)(=O)c2ccc(C(C)(C)C)cc2)n(-c2ccc(C#N)c3ncccc23)n1 | 501 to 2500
20 | Cc1ccc2c(-n3nc(C)cc3NS(=O)(=O)c3ccc(C(C)(C)C)cc3)cccc2n1 | < 500
21 | Cc1cc(-n2nc(C)cc2NS(=O)(=O)c2ccc(C(C)(C)C)cc2)c2ccccc2n1 | 501 to 2500

Row | SMILES | EC50 [nM]
22 | Cc1cc(NS(=O)(=O)c2ccc(C(C)(C)C)c(F)c2)n(-c2ccc(C#N)c3ncccc23)n1 | < 500
23 | Cc1cc(NS(=O)(=O)c2ccc(C(C)(C)C)cc2)n(-c2cncc3ccccc23)n1 | 501 to 2500
24 | Cc1cc(NS(=O)(=O)c2ccc(C(C)(C)C)c(F)c2)n(-c2cccc3ncccc23)n1 | < 500
25 | CC(C)(C)c1ccc(S(=O)(=O)Nc2cc(CF)nn2-c2cccc3ncccc23)cc1F | < 500
26 | Cc1cc(NS(=O)(=O)c2ccc(C(C)(C)C)cc2)n(-c2n[nH]c(=O)c3ccccc23)n1 | 501 to 2500
27 | Cc1cc(NS(=O)(=O)c2ccc(C(C)(C)C)cc2)n(-c2ccnc3cc(F)ccc23)n1 | 501 to 2500
28 | CC(C)c1ccc(S(=O)(=O)Nc2cc(C(F)F)nn2-c2cccc3ncccc23)cc1 | 501 to 2500
29 | Cc1cc(NS(=O)(=O)c2ccc(C(C)(C)C)cc2)n(-c2ccc(F)c3ncccc23)n1 | 501 to 2500
30 | Cc1cc(NS(=O)(=O)c2ccc(C(C)(C)C)cc2)n(-c2nccc3ccccc23)n1 | 501 to 2500
31 | COc1ccc(-n2nc(C)cc2NS(=O)(=O)c2ccc(C(C)(C)C)cc2)c2cccnc12 | < 500
32 | Cc1cc(NS(=O)(=O)c2ccc(C(C)C)cc2)n(-c2cccc3ncccc23)n1 | 501 to 2500
33 | Cc1cc(NS(=O)(=O)c2ccc(C(C)(C)C)cc2)n(-c2ccnc3ccccc23)n1 | 501 to 2500
34 | Cc1cc(NS(=O)(=O)c2ccc(C(C)(C)C)cc2)n(-c2nncc3ccccc23)n1 | 501 to 2500
35 | CC(C)Oc1ccc(S(=O)(=O)Nc2cc(CF)nn2-c2cccc3ncccc23)cc1 | 501 to 2500
36 | Cc1cc(NS(=O)(=O)c2ccc(OC(F)(F)F)cc2)n(-c2cccc3ncccc23)n1 | 501 to 2500
37 | Cc1cc(NS(=O)(=O)c2ccc(OC(C)C)c(F)c2)n(-c2cccc3ncccc23)n1 | 501 to 2500
38 | Cc1cc(NS(=O)(=O)c2ccc(C(C)(C)C)cc2)n(-c2cccc3cnccc23)n1 | 501 to 2500
39 | CC(C)(C)c1ccc(S(=O)(=O)Nc2cc(C(F)(F)F)nn2-c2cccc3ncccc23)cc1 | 501 to 2500
40 | Cc1cc(NS(=O)(=O)c2ccc(C(C)(C)C)cc2)n(-c2ccc(Cl)c3ncccc23)n1 | < 500
41 | CC(C)(C)c1ccc(S(=O)(=O)Nc2cc(C#N)nn2-c2cccc3ncccc23)cc1 | 501 to 2500
42 | CC(C)Oc1ccc(S(=O)(=O)Nc2cc(C(F)(F)F)nn2-c2cccc3cnccc23)cc1 | 501 to 2500

Row | SMILES | EC50 [nM]
43 | CC(C)Oc1ccc(S(=O)(=O)Nc2cc(C(F)(F)F)nn2-c2cccc3ncccc23)cc1 | > 2500
44 | Cc1cc(-n2nc(C)cc2NS(=O)(=O)c2ccc(C(C)(C)C)cc2)c2cccnc2c1 | 501 to 2500
45 | Cc1cc(NS(=O)(=O)c2ccc(C(C)(C)C)c(F)c2)n(-c2ccc(N)c3ncccc23)n1 | 501 to 2500
46 | Cc1cc(NS(=O)(=O)c2ccc(C(C)(C)C)cc2)n(-c2cccc3nc(N)ccc23)n1 | < 500
47 | Cc1cc(NS(=O)(=O)c2ccc(C(C)(C)C)cc2)n(-c2cnnc3ccccc23)n1 | 501 to 2500
48 | Cc1cc(NS(=O)(=O)c2ccc(C(C)(C)C)cc2)n(-c2ccnc3c(F)cccc23)n1 | 501 to 2500
49 | Cc1cc(NS(=O)(=O)c2ccc(C(C)(C)C)cc2)n(-c2ccc(N)c3ncccc23)n1 | < 500
50 | Cc1cc(NS(=O)(=O)c2ccc(C(C)(C)C)cc2)n(-c2cc(N)nc3ccccc23)n1 | 501 to 2500
51 | Cc1cc(NS(=O)(=O)c2ccc(C(C)(C)C)cc2)n(-c2ccc(C)c3ncccc23)n1 | 501 to 2500
52 | Cc1cc(NS(=O)(=O)c2ccc(C(C)(C)C)cc2)n(-c2cccc3c(N)nccc23)n1 | 501 to 2500
53 | CC(C)(C)c1ccc(S(=O)(=O)Nc2cc(C(F)F)nn2-c2cccc3ncccc23)cc1F | 501 to 2500
54 | CC(C)Oc1ccc(S(=O)(=O)Nc2cc(C(F)F)nn2-c2cccc3ncccc23)cc1 | < 500
55 | COCc1cc(NS(=O)(=O)c2ccc(C(C)(C)C)cc2)n(-c2cccc3ncccc23)n1 | < 500
56 | Cc1cc(NS(=O)(=O)c2ccc(C(C)(C)C)c(F)c2)n(-c2cccc3nc(N)ccc23)n1 | < 500
57 | Cc1cc(NS(=O)(=O)c2ccc(C(C)(C)C)c(Cl)c2)n(-c2cccc3ncccc23)n1 | 501 to 2500
58 | Cc1cc(NS(=O)(=O)c2ccc(OCC(C)C)cc2)n(-c2cccc3ncccc23)n1 | > 2500
59 | CC(C)(C)c1ccc(S(=O)(=O)Nc2cc(C(F)F)nn2-c2cccc3ncccc23)cc1 | < 500
60 | Cc1cc(NS(=O)(=O)c2ccc(C(C)(C)C)cc2)n(-c2ncc(Cl)c3ccccc23)n1 | > 2500
61 | COc1ccc(-n2nc(C)cc2NS(=O)(=O)c2ccc(C(C)(C)C)c(F)c2)c2cccnc12 | < 500
62 | Cc1cc(NS(=O)(=O)c2ccc(C(C)C)cc2)n(-c2cccc3cnccc23)n1 | 501 to 2500
